Test results taken from DBAASP.
Converted amounts (≈) assume the structure as drawn.

Columns and labels:
Experiment in all cases: ≥ marks a high value that may be exact or a test limit, other limits are often not marked, values filed in µg/mL are converted to µM
[1] = system: Escherichia coli CPCC 100521
[2] = system: Staphylococcus aureus CPCC 100520
[3] = system: Candida albicans CPCC 400416
[4] = system: Staphylococcus aureus ATCC 29213
Acinetobacter baumannii = system: Acinetobacter baumannii
[5] = system: Listeria monocytogenes 10403s
[6] = system: Pseudomonas aeruginosa 547
Pseudomonas aeruginosa = system: Pseudomonas aeruginosa
[7] = system: Serratia marcescens ATCC 8100
Staphylococcus aureus = system: Staphylococcus aureus
[8] = system: Acinetobacter baumannii ATCC 19606
[9] = system: Streptococcus pneumoniae ATCC 49619
[10] = system: Pseudomonas aeruginosa PA14
[11] = system: Escherichia coli ATCC 25922
Enterococcus faecium = system: Enterococcus faecium
Salmonella typhimurium = system: Salmonella typhimurium
[12] = system: Burkholderia cepacia ATCC 25416
[13] = system: Pseudomonas aeruginosa ATCC 27853
[14] = system: Escherichia coli O18:K1:H7
[15] = system: Stenotrophomonas maltophilia
[16] = system: Klebsiella pneumoniae ATCC 27736
Streptococcus pyogenes = system: Streptococcus pyogenes
Klebsiella pneumoniae = system: Klebsiella pneumoniae
[17] = system: Pseudomonas fluorescens CGMCC 1.0032
Escherichia coli MC1061 = system: Escherichia coli MC1061
[18] = system: Micrococcus luteus CGMCC 1.0634
[19] = system: Staphylococcus aureus CGMCC 1.363
[20] = system: Micrococcus luteus CGMCC 1.634
[21] = system: Vibrio alginolyticus CGMCC 1.1833
[22] = system: Candida albicans CGMCC 2.2411
[23] = system: Corynebacterium glutamicum CGMCC 1.1886
Aeromonas sobria = system: Aeromonas sobria
[24] = system: Vibrio harveyi CGMCC 1.1593
[25] = system: Shigella flexneri CGMCC 1.1868
[26] = system: Aeromonas hydrophila CGMCC 1.0927
[27] = system: Staphylococcus epidermidis CGMCC 1.2429
Edwardsiella tarda = system: Edwardsiella tarda
[28] = system: Vibrio fluvialis CGMCC 1.1609
[29] = system: Bacillus subtilis CGMCC 1.108
[30] = system: Vibrio parahaemolyticus CGMCC 1.1615
[31] = system: Staphylococcus aureus CICC 10384
[32] = system: Escherichia coli CICC 10293
[33] = system: Serratia marcescens ATCC 4112
[34] = system: Bacillus subtilis CICC 10034
[35] = system: Salmonella enterica subsp. enterica serovar Paratyphi B CICC 10437
[36] = system: Enterobacter cloacae CICC 21539
[37] = system: Listeria innocua CICC 10417
[38] = system: Staphylococcus aureus CICC 10306
[39] = system: Candida albicans CICC 1965
[40] = system: Saccharomyces cerevisiae CICC 1002
[41] = system: Pseudomonas aeruginosa CICC 21636
Streptococcus sanguinis = system: Streptococcus sanguinis

CC[C@H](C)[C@H](NC(=O)CN)C(=O)NCC(=O)N[C@@H](CO)C(=O)N[C@@H](C)C(=O)N[C@H](C(=O)N[C@@H](CC(C)C)C(=O)N[C@@H](CO)C(=O)N[C@@H](C)C(=O)NCC(=O)N[C@@H](CCCCN)C(=O)N[C@@H](CO)C(=O)N[C@H](C(=O)N[C@H](C(=O)N[C@@H](CCCCN)C(=O)NCC(=O)N[C@@H](CC(C)C)C(=O)N[C@@H](C)C(=O)N[C@@H](CCCCN)C(=O)NCC(=O)N[C@@H](CC(C)C)C(=O)N[C@@H](C)C(=O)N[C@@H](CCC(=O)O)C(=O)N[C@@H](Cc1cnc[nH]1)C(=O)N[C@@H](Cc1ccccc1)C(N)=O)[C@@H](C)CC)[C@@H](C)CC)[C@@H](C)CC [GIGSAILSAGKSIIKGLAKGLAEHF]
MIC [1]: 26.2 µM (≈ 64 µg/mL) | MIC [2]: 26.2 µM (≈ 64 µg/mL) | MIC [3]: ≥ 52.5 µM

CSCC[C@@H](NC(=O)[C@@H](Cc1c[nH]c2ccccc12)NC(=O)CNC(=O)CNC(=O)[C@@H](CCCN=C(N)N)NC(=O)[C@@H](CCCN=C(N)N)NC(=O)[C@@H](CCCN=C(N)N)NC(=O)[C@@H](CCC(N)=O)NC(=O)[C@@H](CCCN=C(N)N)NC(=O)[C@@H](CCCN=C(N)N)NC(=O)[C@@H](CCCCN)NC(=O)[C@@H](CCCCN)NC(=O)[C@@H](CCCN=C(N)N)NC(=O)CN)C(=O)N[C@H](Cc1c[nH]c2ccccc12)C(=O)N[C@@H](C(=O)N[C@@H](C(=O)N[C@H](CC(N)=O)C(=O)N[C@H](CC(C)C)C(=O)N[C@H](CCCN=C(N)N)C(=O)N[C@@H](C(=O)N[C@H](CC(=O)O)C(=O)O)[C@H](C)O)[C@H](C)O)C(C)C [GRKKRRQRRRGGWMWVTNLRTD]
MIC [4]: 45.5 µM (≈ 128 µg/mL) | MIC (Acinetobacter baumannii): 5.69 µM (≈ 16 µg/mL) | MIC [5]: ≥ 45.5 µM | MIC [6]: ≥ 45.5 µM | MIC (Pseudomonas aeruginosa): > 45.5 µM | MIC [7]: ≥ 91 µM | MIC (Staphylococcus aureus): 45.5 µM (≈ 128 µg/mL) | MIC [8]: 2.84 µM (≈ 8 µg/mL) | MIC [9]: 22.7 µM (≈ 64 µg/mL) | MIC [10]: 11.4 µM (≈ 32 µg/mL) | MIC [11]: 11.4 µM (≈ 32 µg/mL) | MIC (Enterococcus faecium): 22.7 µM (≈ 64 µg/mL) | MIC (Salmonella typhimurium): 22.7 µM (≈ 64 µg/mL) | MIC [12]: ≥ 91 µM | MIC [13]: 22.7 µM (≈ 64 µg/mL) | MIC [14]: 22.7 µM (≈ 64 µg/mL) | MIC [15]: 5.69 µM (≈ 16 µg/mL) | MIC [16]: ≥ 91 µM | MIC (Streptococcus pyogenes): 2.84 µM (≈ 8 µg/mL) | MIC (Klebsiella pneumoniae): > 91 µM

CC[C@H](C)[C@H](NC(=O)[C@H](CCCN=C(N)N)NC(=O)CNC(=O)[C@@H](NC(=O)[C@@H]1CCCN1C(=O)[C@H](Cc1ccccc1)NC(=O)[C@H](CCC(N)=O)NC(=O)[C@H](CC(C)C)NC(=O)CNC(=O)[C@H](C)NC(=O)[C@H](CCCN=C(N)N)NC(=O)[C@H](C)NC(=O)[C@H](CO)NC(=O)[C@H](CCCN=C(N)N)NC(=O)[C@H](CO)NC(=O)[C@@H](NC(=O)[C@H](C)NC(=O)[C@H](CCCCN)NC(=O)[C@H](C)NC(=O)[C@H](CCCCN)NC(=O)[C@H](C)NC(=O)[C@@H](N)CCCCN)C(C)C)C(C)C)C(=O)N[C@@H](Cc1cnc[nH]1)C(=O)N[C@@H](CCCN=C(N)N)C(=O)N[C@@H](Cc1cnc[nH]1)C(=O)N[C@@H](CC(C)C)C(=O)N[C@@H](CCCCN)C(=O)O [KAKAKAVSRSARAGLQFPVGRIHRHLK]
MIC [17]: 1.06 µM (≈ 3.16 µg/mL) | MIC (Escherichia coli MC1061): 2.12 µM (≈ 6.33 µg/mL) | MIC [18]: 1.06 µM (≈ 3.16 µg/mL) | MIC [19]: 2.12 µM (≈ 6.33 µg/mL) | MIC [20]: 1.06 µM (≈ 3.16 µg/mL) | MIC [21]: ≥ 48 µM | MIC [22]: ≥ 33.9 µM | MIC [23]: 1.06 µM (≈ 3.16 µg/mL) | MIC (Aeromonas sobria): 4.24 µM (≈ 12.7 µg/mL) | MIC [24]: ≥ 48 µM | MIC [25]: 1.06 µM (≈ 3.16 µg/mL) | MIC [26]: 1.06 µM (≈ 3.16 µg/mL) | MIC [27]: 2.12 µM (≈ 6.33 µg/mL) | MIC (Edwardsiella tarda): ≥ 48 µM | MIC [28]: ≥ 48 µM | MIC [29]: 2.12 µM (≈ 6.33 µg/mL) | MIC [30]: ≥ 48 µM

CC[C@H](C)[C@H](NC(=O)[C@H](CCSC)NC(=O)[C@H](CO)NC(=O)[C@@H](NC(=O)[C@@H](NC(=O)[C@@H](N)CCCCN)C(C)C)[C@@H](C)CC)C(=O)O [KVISMI]
MIC [31]: 11.6 µM (≈ 8 µg/mL) | MIC [32]: 11.6 µM (≈ 8 µg/mL) | MIC [33]: ≥ 46.4 µM | MIC [34]: ≥ 46.4 µM | MIC [35]: ≥ 46.4 µM | MIC [36]: 23.2 µM (≈ 16 µg/mL) | MIC [37]: 5.8 µM (≈ 4 µg/mL) | MIC [38]: 11.6 µM (≈ 8 µg/mL) | MIC [39]: ≥ 46.4 µM | MIC [40]: ≥ 46.4 µM | MIC [41]: 23.2 µM (≈ 16 µg/mL)

CC[C@H](C)[C@H](NC(=O)[C@H](Cc1ccccc1)NC(=O)[C@@H](N)CC(C)C)C(=O)N[C@@H](Cc1ccccc1)C(=O)N[C@@H](Cc1ccccc1)C(=O)N[C@@H](Cc1ccccc1)C(N)=O [LFIFFF]
MIC (Staphylococcus aureus): 15.4 µM (≈ 12.8 µg/mL) | MIC (Streptococcus sanguinis): 4.65 µM (≈ 3.87 µg/mL)
